In patent US10766865B2, “PKM2 modulators and methods for their use” (TOLERO PHARMACEUTICALS, INC., priority 2012, dated 2020):
Read-outs that look alike come from different tables or passages of the source.

Biological target: PKM2 (Homo sapiens, UniProt P14618)
Experiment: PKM2 Biochemical Assay
Conditions: for Max. Resp.: % maximum response in a biochemical assay as compared with Fructose 1,6-bisphosphate
[1] = read-out: PKM2 AC50, 2 nM PKM2, 75 μM ADP, 15 μM PEP, Kinase Glo

PKM2, sequence (P14618 whole entry): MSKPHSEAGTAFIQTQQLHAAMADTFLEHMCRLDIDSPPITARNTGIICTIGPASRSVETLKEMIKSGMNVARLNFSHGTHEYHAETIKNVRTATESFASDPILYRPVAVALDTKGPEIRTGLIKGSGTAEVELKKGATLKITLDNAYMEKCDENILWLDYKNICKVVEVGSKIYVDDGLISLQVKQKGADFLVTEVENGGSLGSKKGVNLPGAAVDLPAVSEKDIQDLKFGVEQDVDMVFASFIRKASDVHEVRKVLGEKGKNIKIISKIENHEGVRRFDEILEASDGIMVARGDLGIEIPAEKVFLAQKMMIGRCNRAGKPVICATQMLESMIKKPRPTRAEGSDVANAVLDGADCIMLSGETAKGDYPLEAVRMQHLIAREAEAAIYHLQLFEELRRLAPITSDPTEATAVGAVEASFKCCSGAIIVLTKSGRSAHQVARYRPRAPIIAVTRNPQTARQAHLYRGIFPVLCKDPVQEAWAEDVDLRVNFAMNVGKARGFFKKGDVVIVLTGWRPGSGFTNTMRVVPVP
Protocol: Full length, human PKM2 enzyme was obtained from Promab (Richmond, Calif.). All reagents, unless otherwise noted, were obtained from Sigma (St. Louis, Mo.).
Compounds were pre-incubated with 2 nM PKM2 in reaction buffer (50 mM Tris-HCl, pH 8.0, 200 mM KCl, 30 mM MgCl2, 2 mM DTT, 5% DMSO) for 30 min at ambient temperature. […] After 30 min, ATP formation was measured by Kinase Glo (Promega, Madison, Wis.), and AC50 values were determined using Prism (GraphPad Software, Inc., La Jolla, Calif.).

SMILES | Max. Resp. | AC50 [1] | AC50
O=C(c1cc(C(F)(F)F)n[nH]1)N(CCN1CCCCCC1)Cc1ccc(O)cc1F [Example 195, N-(2-fluoro-4-hydroxybenzyl)-N-(2-(azepan-1-yl)ethyl)-3-(trifluoromethyl)-1H-pyrazole-5-carboxamide] | 100% | – | –
COc1ccc(N)cc1CN(CCN1CCCCCC1)C(=O)c1cc(C(F)(F)F)n[nH]1 [Example 215, N-(5-amino-2-methoxybenzyl)-N-(2-(azepan-1-yl)ethyl)-3-(trifluoromethyl)-1H-pyrazole-5-carboxamide] | 100% | – | –
CC1CCN(CCN(Cc2ccccc2Cl)C(=O)c2cc(C(F)(F)F)n[nH]2)CC1 [Example 190, N-(2-chlorobenzyl)-3-(trifluoromethyl)-N-(2-(4-methylpiperidin-1-yl)ethyl)-1H-pyrazole-5-carboxamide] | 100% | – | –
O=C(c1cc(C(F)(F)F)n[nH]1)N(CCC1CCS(=O)(=O)C1)Cc1cccnc1 (stereo not drawn) [Example 90] | 24% | – | –
O=C(c1cc(C(F)(F)F)n[nH]1)N(Cc1ccc(O)cc1F)C1CCCCC1 [Example 139, N-(2-fluoro-4-hydroxybenzyl)-N-cyclohexyl-3-(trifluoromethyl)-1H-pyrazole-5-carboxamide] | 100% | – | –
CCN(CC)CCN(Cc1cc(F)ccc1Cl)C(=O)c1cc(C(F)(F)F)n[nH]1 [Example 171, N-(2-chloro-5-fluorobenzyl)-N-(2-(diethylamino)ethyl)-3-(trifluoromethyl)-1H-pyrazole-5-carboxamide] | 100% | – | –
Nc1cccc(Cl)c1CN(CCN1CCCC1)C(=O)c1cc(C(F)(F)F)n[nH]1 [Example 222, N-(2-amino-6-chlorobenzyl)-3-(trifluoromethyl)-N-(2-(pyrrolidin-1-yl)ethyl)-1H-pyrazole-5-carboxamide] | 100% | – | –
O=C(c1cc(C(F)(F)F)n[nH]1)N(CCC1CCSCC1)Cc1c(F)cccc1F [Example 84] | 73% | – | –
CC[C@](C)(N)C(=O)Oc1ccc(CN(CC2CCC2)C(=O)c2cc(Cl)n[nH]2)c(F)c1 [Example 115, (S)-4-((3-chloro-N-(cyclobutylmethyl)-1H-pyrazole-5-carboxamido)methyl)-3-fluorophenyl 2-amino-2-methylbutanoate] | 104% | – | –
O=C(c1cc(C(F)(F)F)n[nH]1)N(CCC1CCOCC1)Cc1ccccc1F [Example 41] | 118% | – | –
Nc1cccc(Cl)c1CN(CCN1CCCC(F)CC1)C(=O)c1cc(C(F)(F)F)n[nH]1 (stereo not drawn) [Example 243, N-(2-amino-6-chlorobenzyl)-N-(2-(4-fluoroazepan-1-yl)ethyl)-3-(trifluoromethyl)-1H-pyrazole-5-carboxamide] | 100% | – | –
O=C(c1cc(C(F)(F)F)n[nH]1)N(Cc1cccc2c1CCN2)CC1CCC1 [Example 14, N-(cyclobutylmethyl)-N-(indolin-4-ylmethyl)-3-(trifluoromethyl)-1H-pyrazole-5-carboxamide] | 81% | 1700 nM | –
CCN(CC)CCN(Cc1ccccc1C(C)C)C(=O)c1cc(C(F)(F)F)n[nH]1 [Example 184, N-(2-isopropylbenzyl)-N-(2-(diethylamino)ethyl)-3-(trifluoromethyl)-1H-pyrazole-5-carboxamide] | 85% | – | –
O=C(c1cc(C(F)(F)F)n[nH]1)N(CCC(F)(F)F)Cc1ccc(O)cc1F [Example 130, N-(2-fluoro-4-hydroxybenzyl)-3-(trifluoromethyl)-N-(3,3, trifluoropropyl)-1H-pyrazole-5-carboxamide] | 100% | – | –
O=C(c1cc(C2CC2)n[nH]1)N(Cc1ccc(O)cc1F)CC1CCC1 [Example 246] | 85% | 92 nM | –
COC1CCN(CCN(Cc2c(N)cccc2Cl)C(=O)c2cc(C(F)(F)F)n[nH]2)C1 (stereo not drawn) [Example 235, N-(2-amino-6-chlorobenzyl)-3-(trifluoromethyl)-N-(2-(3-methoxypyrrolidin-1-yl)ethyl)-1H-pyrazole-5-carboxamide] | 100% | – | –
CS(=O)(=O)N1CCCC(CCN(Cc2ccccc2Cl)C(=O)c2cc(C(F)(F)F)n[nH]2)C1 (stereo not drawn) [Example 228, N-(2-chlorobenzyl)-N-(2-(1-(methylsulfonyl)piperidin-3-yl)ethyl)-3-(trifluoromethyl)-1H-pyrazole-5-carboxamide] | 100% | – | –
O=C(c1cc(C(F)(F)F)n[nH]1)N(CCN1CCCC1)Cc1cccc2[nH]cc(F)c12 [Example 206, N-((3-fluoro-1H-indol-4-yl)methyl)-3-(trifluoromethyl)-N-(2-(pyrrolidin-1-yl)ethyl)-1H-pyrazole-5-carboxamide] | 100% | – | –
O=C(c1cc(C(F)(F)F)n[nH]1)N(CCC1CCOC1)Cc1c(Cl)cccc1Cl (stereo not drawn) [Example 33] | 81% | – | –
CCN(CC)CCCN(Cc1ccccc1Cl)C(=O)c1cc(C(F)(F)F)n[nH]1 [Example 185, N-(2-chlorobenzyl)-N-(3-(diethylamino)propyl)-3-(trifluoromethyl)-1H-pyrazole-5-carboxamide] | 53% | – | –
Nc1cccc(Cl)c1CN(CCN1CCS(=O)(=O)CC1)C(=O)c1cc(C(F)(F)F)n[nH]1 [Example 224, N-(2-amino-6-chlorobenzyl)-N-(2-(4-dioxothiomorpholino)ethyl)-3-(trifluoromethyl)-1H-pyrazole-5-carboxamide] | 100% | – | –
CCCN(CC)CCN(Cc1ccccc1Cl)C(=O)c1cc(C(F)(F)F)n[nH]1 [Example 209, N-(2-chlorobenzyl)-N-(2-(ethyl-propylamino)ethyl)-3-(trifluoromethyl)-1H-pyrazole-5-carboxamide] | 100% | – | –

SMILES | Max. Resp. | AC50 [1] | AC50
O=C(c1cc(C(F)(F)F)n[nH]1)N(Cc1cccc(F)c1O)CC1CCC1 [Example 136, N-(3-fluoro-2-hydroxybenzyl)-N-(cyclobutylmethyl)-3-(trifluoromethyl)-1H-pyrazole-5-carboxamide] | 100% | – | –
COCCCN(Cc1ccccc1Cl)C(=O)c1cc(C(F)(F)F)n[nH]1 [Example 31] | 82% | – | –
O=C(c1cc(C(F)(F)F)n[nH]1)N(CCC1CCCO1)Cc1ccccc1F (stereo not drawn) [Example 46] | 70% | – | –
Nc1ccc(CN(CCN2CCCCCC2)C(=O)c2cc(C(F)(F)F)n[nH]2)c(Cl)c1 [Example 207, N-(4-amino-2-chlorobenzyl)-N-(2-(azepan-1-yl)ethyl)-3-(trifluoromethyl)-1H-pyrazole-5-carboxamide] | 75% | – | –
CCN(CC)CCN(Cc1c(Cl)cccc1Cl)C(=O)c1cc(C(F)(F)F)n[nH]1 [Example 169, N-(2,6-dichlorobenzyl)-N-(2-(diethylamino)ethyl)-3-(trifluoromethyl)-1H-pyrazole-5-carboxamide] | 100% | – | –
O=C(c1cc(C(F)(F)F)n[nH]1)N(CCN1CCS(=O)(=O)CC1)Cc1ccccc1Cl [Example 107] | 85% | – | –
O=C(c1cc(C(F)(F)F)n[nH]1)N(Cc1ccccc1F)CC1CCOCC1 [Example 45] | 52% | – | –
Nc1cccc(Cl)c1CN(CCN1CCCC(O)C1)C(=O)c1cc(C(F)(F)F)n[nH]1 (stereo not drawn) [Example 225, N-(2-amino-6-chlorobenzyl)-3-(trifluoromethyl)-N-(2-(3-hydroxypiperidin-1-yl)ethyl)-1H-pyrazole-5-carboxamide] | 100% | – | –
O=C(c1cc(C(F)(F)F)n[nH]1)N(CCC1CC[S+]([O-])CC1)Cc1ccccc1Cl (stereo not drawn) [Example 74, N-(2-CHLOROBENZYL)-N-(2-(1-OXIDOTETRAHYDRO-2H-THIOPYRAN-4-YL)ETHYL)-3-(TRIFLUOROMETHYL)-1H-PYRAZOLE-5-CARBOXAMIDE] | 95% | – | –
CCN(CC)CCN(Cc1cccc(Cl)c1Cl)C(=O)c1cc(C(F)(F)F)n[nH]1 [Example 167, N-(2,3-dichlorobenzyl)-N-(2-(diethylamino)ethyl)-3-(trifluoromethyl)-1H-pyrazole-5-carboxamide] | 100% | – | –
O=C(c1cc(C(F)(F)F)n[nH]1)N(CCC1CCS(=O)(=O)C1)Cc1cc(F)ccc1F (stereo not drawn) [Example 70] | 91% | – | –
O=C(c1cc(C(F)(F)F)n[nH]1)N(CCN1CCCC1)Cc1ccc(Cl)cc1Cl [Example 165, N-(2,4-dichlorobenzyl)-3-(trifluoromethyl)-N-(2-(pyrrolidin-1-yl)ethyl)-1H-pyrazole-5-carboxamide] | 50% | – | –
COc1c(N)cccc1CN(CCN1CCCCCC1)C(=O)c1cc(C(F)(F)F)n[nH]1 [Example 217, N-(3-amino-2-methoxybenzyl)-N-(2-(azepan-1-yl)ethyl)-3-(trifluoromethyl)-1H-pyrazole-5-carboxamide] | 100% | – | –
O=C(c1cc(C(F)(F)F)n[nH]1)N(CCC1CCS(=O)(=O)CC1)Cc1ccc(O)cc1F [Example 87] | 100% | – | –
CCNCCN(Cc1ccccc1F)C(=O)c1cc(C(F)(F)F)n[nH]1 [Example 155, N-(2-fluorobenzyl)-N-(2-(ethylamino)ethyl)-3-(trifluoromethyl)-1H-pyrazole-5-carboxamide] | 100% | – | –
CN1CCC(CN(Cc2ccccc2F)C(=O)c2cc(C(F)(F)F)n[nH]2)CC1 [Example 100] | 29% | – | –
O=C(c1cc(C(F)(F)F)n[nH]1)N(Cc1ccccc1F)CC1COC1 [Example 20] | 70% | – | –
Nc1cccc(Cl)c1CN(CCN1CC[C@@H](F)C1)C(=O)c1cc(C(F)(F)F)n[nH]1 [Example 242, N-(2-amino-6-chlorobenzyl)-3-(trifluoromethyl)-N-(2-((R)-3-fluoropyrrolidin-1-yl)ethyl)-1H-pyrazole-5-carboxamide] | 100% | – | –
O=C(c1cc(Br)n[nH]1)N(Cc1cccc2[nH]cnc12)CC1CCC1 [Example 120, N-((1H-benzo[d]imidazol-4-yl)methyl)-3-bromo-N-(cyclobutylmethyl)-1H-pyrazole-5-carboxamide] | 100% | 1340 nM | –
O=C(c1cc(C(F)(F)F)n[nH]1)N(CCc1ccc(O)cc1)Cc1ccccc1Cl [Example 230, N-(2-chlorobenzyl)-N-(4-hydroxyphenethyl)-3-(trifluoromethyl)-1H-pyrazole-5-carboxamide] | 100% | – | –
COCCCN(Cc1ccccc1Cl)C(=O)c1cc(C(F)(F)F)n[nH]1 [Example 29] | 87% | – | 4640 nM
O=C(c1cc(C(F)(F)F)n[nH]1)N(Cc1ccccc1Cl)CC1COC1 [Example 27] | 47% | – | –
